Reference: article PMC8067721 (Pharmaceutics, 2021)

How the values were obtained:
[1] = test system: NT receptors (NTRS1, NTRS2, NTRS3) on HT-29 cells; assay: In vitro specific binding / competition assay with all NT receptors blocked; design: species or system human; conditions: antagonists applied together: 70 nM NTRC 824, 30 nM SR 48692, 10 nM SR 142948, […]; uptake profile almost linear
Protocol: In order to evaluate the specific binding due to the exclusive interaction of the peptide with its receptors, a competition assay was performed. This assay in which all NT receptors are blocked before incubating the labelled peptide is intended to highlight non-specific binding of NT to the cells. […] For this assessment, three different NT receptors antagonists were used, each having a preferential increased affinity for one of the receptors, allowing the blocking of all NTRs at the same time:
Afterwards, the medium containing unbound antagonists was removed and the cells were washed with 2 mL of fresh DMEM medium.

[2] = test system: HT-29 cells; design: method as in PMID 9023294; conditions: cited from earlier work
[3] = test system: NTRS2; design: method as in PMID 25157640; conditions: cited from earlier work

Molecule	effect of antagonists on ^68Ga-DOTA-NT binding to colon HT-29 tumour cells [1]	inhibition of [^125I]ITyr^3-NT specific binding to HT-29 cells [2]	selectivity for NTRS2 over NTRS1 [3] [fold]
2-[[5-(2,6-dimethoxyphenyl)-1-(4-(N-(3-dimethylaminopropyl)-N-methylcabamoyl)-2-isopropylphenyl)-1H-pyrazole-3-carbonyl]amino]adamantane-2-carboxylic acid [SR 142948]	inhibit	completely inhibits	–
Cc1ccc(S(=O)(=O)Nc2ccc3c(c2)c(C(=O)C(F)(F)F)cn3CC(=O)N[C@@H](CC(C)C)C(=O)O)cc1 [NTRC 824, N-[2-[5-[[(4-Methylphenyl)sulfonyl]amino]-3-(trifluoroacetyl)-1H-indol-1-yl]acetyl]-L-leucine]	inhibit	–	150
COc1cccc(OC)c1-c1cc(C(=O)NC2(C(=O)O)C3CC4CC(C3)CC2C4)nn1-c1ccnc2cc(Cl)ccc12 (centres unmarked) [SR 48692, 2-[[1-(7-chloroquinolin-4-yl)-5-(2,6-dimethoxyphenyl)-1H-pyrazol-3-carbonyl]amino] adamantane-2-carboxylic acid]	inhibit	–	–
